Assays:
MCF7 cells [1] = experiment: Colony formation survival assay, MCF7 cells; type: cell-based, human; settings: MCF7 cells
Description: FIG. 15. […] B. Combination index. Combination index (CI) was derived using the data shown in A and the formula: […]
(§1) For each potency ratio, combination index of three effective concentrations at IC30, IC50, and IC70 were calculated for synergistic effects using Prism 7.0.
(§2) Cells were then harvested and re-plated in 6-well plates at a density of 200 cells/well followed by IR treatment at different doses and colony formation assay or collection of cells for Western blot analysis. Concentration-response curves and IC50 values were calculated using Prism 7.0 (GraphPad, La Jolla, USA).

MDA-MB-231 cells = experiment: Colony formation survival assay, MDA-MB-231 cells; type: cell-based; settings: Homo sapiens, single agent, read-out: IC50, cell survival
MDA-MB-468 cells [2] = experiment: Colony formation survival assay, MDA-MB-468 cells; type: cell-based, human; settings: pre-treated with 10 μM lansoprazole for 3 days
Description: as §1, §2

PARP1 expression = experiment: Western blot of PARP1 expression in 4 breast cancer cell lines; type: cell-based, human; settings: lansoprazole at different concentrations, all 4 cell lines
Description: FIG. 18. Role of FASN in mediating PPI effect. A, Western blot analysis of FASN and PARP1 expression in MCF7 cells with ectopic FASN over-expression and in drug resistant MCF7/AdVp3000 (M3K) cells with FASN knockdown. […] E, Rescue of lansoprazole-induced reduction in NHEJ activity by ectopic FASN over-expression. […] G, Ablation of lansoprazole-induced γH2AX level increase by ectopic FASN over-expression as determined using Western blot analysis. Actin was used as loading control for all Western blot analyses.
FASN can regulate NHEJ repair activity by regulating PARP1 expression (Wu et al., 2017).
Cells were harvest and then lysed in TNN buffer with 1 mM DTT, 1 mM PMSF and 0.1% SDS for 30 min at 4° C. with occasional agitation. The cells were sonicated briefly and total proteins were harvested after centrifugation of the lysate at 16,000 g for 15 minutes at to remove cell debris. The protein concentration of cell lysates was determined using a Bio-Rad protein assay kit. […]

[3] = system: NHEJ activity in MCF7 cells; experiment: Host cell reactivation NHEJ assay, MCF7 cells; type: cell-based, human; settings: 10 μM, three days
Description: (§3) The host cell reactivation NHEJ assay was carried out as previously described (Wu et al., 2017) with minor modifications. Briefly, 1×10^4 cells were seeded in 24-well plates, cultured overnight and then treated with 10 μM Lansoprzole or vehicle every day for three days before transfection with either linearized or intact pGL3-luc firefly luciferase plasmids (400 ng) using Lipofectamine 2000 (Invitrogen). pGL3-luc plasmid was linearized by HindIII digestion, and linearization was verified by DNA agarose gel electrophoresis before transfection. pRL-TK (Promega) plasmid which encodes renilla luciferase was co-transfected (400 ng) as a control for transfection efficiency. 8 hours after transfection, cells were harvested and assayed for luciferase activity with Dual Luciferase Assay (Promega) on a luminometer. Firefly luciferase signal were normalized to renilla luciferase signal in each group. Overall NHEJ activity was calculated by firefly luciferase activity from cells transfected with linearized plasmid relative to that of the intact plasmid.

[4] = system: NHEJ activity in MDA-MB-468 cells; experiment: Host cell reactivation NHEJ assay, MDA-MB-468 cells; type: cell-based, human; settings: 10 μM, three days
Description: as §3

γ-H2AX in MCF7 cells = experiment: Western blot of γ-H2AX, MCF7 cells; type: cell-based, human; settings: lansoprazole alone
Description: (§4) Furthermore, the lansoprazole-induced γ-H2AX increase in MCF7 cells was ablated by over-expressing ectopic FASN (FIG. 18G).
(§5) Cells were harvest and then lysed in TNN buffer with 1 mM DTT, 1 mM PMSF and 0.1% SDS for 30 min at 4° C. with occasional agitation. The cells were sonicated briefly and total proteins were harvested after centrifugation of the lysate at 16,000 g for 15 minutes at to remove cell debris. The protein concentration of cell lysates was determined using a Bio-Rad protein assay kit. Total cell lysates were then separated by SDS-PAGE, transferred to a polyvinylidene fluoride membrane, and probed using antibodies against fatty acid synthase (610963, BD biosciences), PARP-1 (46D11, CST), γ-H2AX (05-636, Millipore), and (3-Actin (A2228, Sigma). The blot was then probed with horseradish peroxidase-conjugated secondary antibodies (Sigma) and signals were captured on X-ray films following developing with Amersham ECL Western Blotting Detection Reagent (RPN2106, GE).

[5] = system: γ-H2AX in MDA-MB-468 cells; experiment: Western blot of γ-H2AX, MDA-MB-468 cells; type: cell-based, human; settings: lansoprazole alone
Description: as §4, §5

MCF7 cells [6] = experiment: Apoptosis and cell cycle distribution, MCF7 cells; type: cell-based, human
Description: (§6) Cancer cells were plated in 6-well plates at a density of 2×10^5 cells/well, cultured overnight. […] Cells were washed with PBS and fixed ice cold 70% ethanol overnight. After centrifugation, pellets were resuspended in PBS, stained with propidium iodide solution for 30 min in the dark and analyzed by flow cytometry.

MDA-MB-468 cells [7] = experiment: Apoptosis and cell cycle distribution, MDA-MB-468 cells; type: cell-based, human
Description: as §6

breast cancer patients = experiment: Retrospective survival analysis of electronic medical records of breast cancer patients; type: in vivo, human
Description: FIG. 16. Retrospective survival analysis of breast cancer patients with or without use of proton pump inhibitors (PPIs). De-identified electronic medical records of 6,752 breast cancer patients were retrieved from the database of Indiana Network for Patient Care (INPC) and subjected to Kaplan-Meier survival analysis in association with PPI usage in all patients (A) or in triple negative breast cancer patient subgroup (B). The p-value and hazard ratio (HR) were calculated from Cox proportional hazard models, which were adjusted for age, tumor stage, and time of first diagnosis.
Because PPIs are widely used for treatment of a variety of acid-related digestive disorders, many cancer patients may use PPIs without the knowledge that the combination of PPIs with their chemotherapy may have helped them. To this end, a retrospective association analysis was conducted using de-identified electronic medical records (EMR) of 6,752 breast cancer patients from Indiana Network for Patient Care (INPC). The average age at diagnosis is 58.9 years (range 19-102) and average age at death or last visit is 61.5 (range 21-104). Of this cohort, 534 patients took one or more PPIs after diagnosis as recorded in the EMR. There are 488 triple negative breast cancer (TNBC) patients, among them 35 used PPIs. Using the Cox proportional hazard regression model, the patient overall survival was analyzed against PPI usage. […] The protective effect of PPIs on patient survival was adjusted for age, tumor stage, and time of first diagnosis.
The patient database contains three domains of electronic medical records (EMR) of 6,752 de-identified breast cancer patients from Indiana Network for Patient Care (INPC). The first domain contains patient characteristics as shown in Supplemental Table 51. The second domain contains medical test results including body weight, blood tests, and office visit information. The third domain contains prescription information for each patient. The use of this database has been approved by IRB at Indiana University for this study.
The first task is to remove null and duplicated values and to resolve contradicting records. For patients that have contradicting records, different rules for different conflicts were followed. For conflicts on the first visit or diagnosis time, the earlier record at younger age were used as the first diagnosis and considered the later one as system update. For all other information including diagnosis information such as cancer subtype, the latest record was used as it is thought to be more accurate.
Next, the plain text information from the first domain of the database including but not limited to ER, PR, and HER2 test results, treatment plans, and therapy types were digitized. The record that is not clear was marked as unknown. For example, the HER2 status with a 2+ score, a borderline score, from IHC staining was usually confirmed with FISH test. Patients with a 2+ score but without a FISH test result were considered unknown in this study.
Further, the days of patient survival from data in the first domain were validated using prescription history of the same patient in the third domain of the database. When there is a conflict, the last day of office visit or prescription refill, whichever is later, was recorded as the last day of visit or death. Moreover, patients who took PPIs prior to their diagnosis of breast cancer but stopped taking them after diagnosis were considered non-PPI users in this study.

[8] = system: MCF7, T47D, MDA-MB-231, and MDA-MB-468 cells; experiment: Colony formation survival assay, four breast cancer cell lines
Description: Next, tested whether PPIs inhibit survival of breast cancer cell lines with different levels of FASN expression (FIG. 17B) using colony formation assay.
Briefly, breast cancer cells were seeded in six-well plates at 200 cells/well and cultured overnight followed by treatments without or with PPIs at different concentrations for 14 days. The colonies formed were then washed with PBS, fixed in 100% methanol and stained with 0.5% crystal violet in 25% methanol. The stained colonies were counted manually and concentration-response curves with IC50 were generated using Prism 7.0 (GraphPad, La Jolla, USA).

`Cc1c(OCC(F)(F)F)ccnc1C[S+]([O-])c1nc2ccccc2[nH]1` (centres unmarked) [lansoprazole] was tested, and the IC50 (MCF7 cells [1]; Homo sapiens, single agent, colony formation, read-out: IC50, cell survival) was 1.3 ± 0.7 µM, the “sensitization to IR treatment” value (MCF7 cells [1]; pre-treated with 10 μM lansoprazole for 3 days) was “sensitized” and the IC50 (MDA-MB-231 cells) was 21.4 ± 4.1 µM. For the same compound, the “sensitization to IR treatment” value (MDA-MB-468 cells [2]) was “sensitized”, the PARP1 expression (PARP1 expression) was “dose-dependently reduced” and the NHEJ activity [3] was “significantly reduced”. The NHEJ activity [4] was “significantly reduced”, the “level of γ-H2AX” value (γ-H2AX in MCF7 cells) was “increased the level of γ-H2AX in a dose-dependent manner” and the “level of γ-H2AX” value [5] was “increased the level of γ-H2AX in a dose-dependent manner”. The apoptosis (MCF7 cells [6]) was “dose-dependently induced apoptosis”, the cell cycle distribution (MCF7 cells [6]) was “cell cycle arrest at G1” and the apoptosis (MDA-MB-468 cells [7]) was “dose-dependently induced apoptosis”. For the same compound, the cell cycle distribution (MDA-MB-468 cells [7]) was “S phase”, the “HR (CoxPH ratio), overall survival” value (breast cancer patients; pairwise versus Omeprazole users, all patients) was 0.68 and the “HR (CoxPH ratio), overall survival” value (breast cancer patients; single-PPI users versus No PPI, all breast cancer patients) was 0.17. For the same compound, the “HR, overall survival” value (breast cancer patients; versus No PPI, African American (AA) patients) was 1.09*10^−7, the “HR, overall survival” value (breast cancer patients; versus No PPI, Caucasian (CA) patients) was 0.18 and the “HR, overall survival” value (breast cancer patients; versus Omeprazole, AA patients) was 3.99*10^−9. For the same compound, the “HR, overall survival” value (breast cancer patients; versus Omeprazole, CA patients) was 0.81 and the “inhibition of breast cancer cell survival, comparison among PPIs” value [8] was “the most effective one for all 4 cell lines”.

From patent US11491147B2, “Combination drug therapy reduces PARP-1 related DNA repair and increases the efficacy of genotoxic agents” (Indiana University Research and Technology Corporation, priority 2016, dated 2022)
